Measurements published in PubChem BioAssay AID330 (DTP/NCI, 2004).
“And” between values parts separate entries of the source, which are not always exact repeats. Equal values may be shown once. Toxic doses and inconclusive results are not listed. How the source made its calls: active means survival T/C of 150% or more; inactive means T/C below 125% in these data.

Test system: P388 leukemia ip, CD2F1 mice, survival T/C
Assay: NCI In Vivo Anticancer Drug Screen. Data for tumor model P388 Leukemia (intraperitoneal) in CD2F1 (CDF1) mice
Details: endpoint: median survival time, higher = longer survival
Outline: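 Mice carrying the transplanted tumor received test compound or vehicle. Survival was recorded in each group, and the value is the treated-group measurement divided by that of the vehicle-treated control group.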

[1] = dose: 50.0 mg/kg/injection, schedule: Q01DX009 (ip), vehicle: Klucel (hydroxypropylcellulose) (HPC)
[2] = dose: 100.0 mg/kg/injection, schedule: Q01DX009 (ip), vehicle: Klucel (hydroxypropylcellulose) (HPC)
[3] = dose: 200.0 mg/kg/injection, schedule: Q01DX009 (ip), vehicle: Klucel (hydroxypropylcellulose) (HPC)
[4] = dose: 60.0 mg/kg/injection, schedule: Q01DX005 (ip), vehicle: saline with Tween-80
[5] = dose: 120.0 mg/kg/injection, schedule: Q01DX005 (ip), vehicle: saline with Tween-80
[6] = dose: 240.0 mg/kg/injection, schedule: Q01DX005 (ip), vehicle: saline with Tween-80
[7] = dose: 50.0 mg/kg/injection, schedule: Q01DX009 (ip), vehicle: saline with Tween-80
[8] = dose: 100.0 mg/kg/injection, schedule: Q01DX009 (ip), vehicle: saline with Tween-80
[9] = dose: 50.0 mg/kg/injection, schedule: Q01DX005 (ip), vehicle: saline with Tween-80
[10] = dose: 100.0 mg/kg/injection, schedule: Q01DX005 (ip), vehicle: saline with Tween-80
[11] = dose: 200.0 mg/kg/injection, schedule: Q01DX005 (ip), vehicle: saline with Tween-80
[12] = dose: 12.5 mg/kg/injection, schedule: Q01DX009 (ip), vehicle: Klucel (hydroxypropylcellulose) (HPC)
[13] = dose: 25.0 mg/kg/injection, schedule: Q01DX009 (ip), vehicle: Klucel (hydroxypropylcellulose) (HPC)
[14] = dose: 50.0 mg/kg/injection, schedule: Q01DX005 (ip), vehicle: Klucel (hydroxypropylcellulose) (HPC)
[15] = dose: 100.0 mg/kg/injection, schedule: Q01DX005 (ip), vehicle: Klucel (hydroxypropylcellulose) (HPC)
[16] = dose: 200.0 mg/kg/injection, schedule: Q01DX005 (ip), vehicle: Klucel (hydroxypropylcellulose) (HPC)
[17] = dose: 100.0 mg/kg/injection, schedule: Q01DX001 (ip), vehicle: saline with Tween-80
[18] = dose: 200.0 mg/kg/injection, schedule: Q01DX001 (ip), vehicle: saline with Tween-80
[19] = dose: 200.0 mg/kg/injection, schedule: Q01DX009 (ip), vehicle: saline with Tween-80

Measured: T/C

Cc1ccc(-c2cn3ccsc3n2)cc1
inactive: dose: 100.0 mg/kg/injection, schedule: Q01DX001 (ip), vehicle: Klucel (hydroxypropylcellulose) (HPC) 95 % of control | dose: 200.0 mg/kg/injection, schedule: Q01DX001 (ip), vehicle: Klucel (hydroxypropylcellulose) (HPC) 97 % of control

COc1ccc(=NC(C)=O)c2c(O)c3c(=O)c4[nH]c5c(OC)ccc(=NC(C)=O)c5c(O)c4c(=O)c3[nH]c12
inactive: [1] 89 % of control | [2] 99 % of control | [3] 99 % of control

CCc1c(NCCO)c(C(=O)NCCO)c2nc3ccccc3n2c1NCCO
inactive: [4] 101 % of control | [5] 99 % of control | [6] 99 % of control

O=C1C(Cl)=C(n2c(=O)oc3ccccc32)C(=O)c2ccccc21
inactive: [7] 93 % of control | [8] 98 % of control

C#CCn1c2c(c3ccccc3c1=O)C(=O)c1ccccc1-2
inactive: [9] 88 % of control | [10] 88 % of control | [11] 101 % of control

NC(=NCCCCCCN=C(N)[N+](=O)[O-])N[N+](=O)[O-]
inactive: dose: 6.25 mg/kg/injection, schedule: Q01DX009 (ip), vehicle: Klucel (hydroxypropylcellulose) (HPC) 113 % of control and 123 % of control | [12] 105 % of control and 106 % of control | [13] 99 % of control and 106 % of control

NC(CCCC(N)C(=O)c1ccccc1)C(=O)c1ccccc1 (stereo not given)
inactive: [4] 92 % of control | [5] 91 % of control | [6] 92 % of control

CC(C)NC(=O)OCc1c(COC(=O)NC(C)C)c([N+](=O)[O-])n2c1CCC2
inactive: dose: 25.0 mg/kg/injection, schedule: Q01DX005 (ip), vehicle: Klucel (hydroxypropylcellulose) (HPC) 95 % of control | [14] 99 % of control | [15] 99 % of control and 97 % of control | [16] 104 % of control and 94 % of control | dose: 400.0 mg/kg/injection, schedule: Q01DX005 (ip), vehicle: Klucel (hydroxypropylcellulose) (HPC) 100 % of control

O=S(=O)(c1ccc(NC(=S)N2CCCCC2)cc1)N1CCCCC1
inactive: [1] 95 % of control | [2] 88 % of control | [3] 86 % of control

CC1COC(O)(C2OCOC(C3CC(=O)NC(=O)C3)C2O)C1C (stereo not given)
inactive: dose: 0.01 mg/kg/injection, schedule: Q01DX009 (ip), vehicle: distilled water + alcohol 100 % of control | dose: 0.03 mg/kg/injection, schedule: Q01DX009 (ip), vehicle: distilled water + alcohol 102 % of control | dose: 0.06 mg/kg/injection, schedule: Q01DX009 (ip), vehicle: distilled water + alcohol 102 % of control | dose: 0.12 mg/kg/injection, schedule: Q01DX009 (ip), vehicle: distilled water + alcohol 102 % of control

O=c1[nH]cnc2ccc3[nH]ncc3c12
inactive: [9] 92 % of control | [10] 94 % of control | [11] 105 % of control

CCCC(=O)N1CCCCC1CC (stereo not given)
inactive: dose: 100.0 mg/kg/injection, schedule: Q01DX001 (ip), vehicle: saline 100 % of control | dose: 200.0 mg/kg/injection, schedule: Q01DX001 (ip), vehicle: saline 102 % of control

CCCCCC(CN(C)C)C(=O)/C=C/c1ccc(O)cc1 (stereo not given)
inactive: dose: 12.5 mg/kg/injection, schedule: Q01DX009 (ip), vehicle: saline 88 % of control | dose: 25.0 mg/kg/injection, schedule: Q01DX009 (ip), vehicle: saline 89 % of control | dose: 50.0 mg/kg/injection, schedule: Q01DX009 (ip), vehicle: saline 101 % of control and 93 % of control | dose: 100.0 mg/kg/injection, schedule: Q01DX009 (ip), vehicle: saline 113 % of control

CCCc1nc2c(=O)[nH]cnc2o1
inactive: dose: 50.0 mg/kg/injection, schedule: Q01DX001 (ip), vehicle: saline with Tween-80 100 % of control | [17] 100 % of control | [18] 100 % of control

CC(C)(C)C(=O)Nc1c(Cl)cc(Br)cc1Br
inactive: dose: 50.0 mg/kg/injection, schedule: Q01DX009 (ip), vehicle: saline + alcohol 105 % of control | dose: 100.0 mg/kg/injection, schedule: Q01DX009 (ip), vehicle: saline + alcohol 101 % of control | dose: 200.0 mg/kg/injection, schedule: Q01DX009 (ip), vehicle: saline + alcohol 100 % of control

O=C1NC(=O)C(=Cc2c(Cl)cccc2Cl)C(=O)N1
inactive: dose: 12.5 mg/kg/injection, schedule: Q01DX009 (ip), vehicle: saline with Tween-80 116 % of control | dose: 25.0 mg/kg/injection, schedule: Q01DX009 (ip), vehicle: saline with Tween-80 122 % of control | [7] 122 % of control

CC(C)(C)c1cc(-c2c3nc(c(-c4cc(C(C)(C)C)c(O)c(C(C)(C)C)c4)c4ccc([nH]4)c(-c4cc(C(C)(C)C)c(O)c(C(C)(C)C)c4)c4nc(c(-c5cc(C(C)(C)C)c(O)c(C(C)(C)C)c5)c5ccc2[nH]5)C=C4)C=C3)cc(C(C)(C)C)c1O
inactive: [4] 90 % of control | [5] 88 % of control | [6] 88 % of control

Nc1ccc(NC(=O)c2ccc([N+](=O)[O-])cc2)cc1
inactive: dose: 25.0 mg/kg/injection, schedule: Q01DX009 (ip), vehicle: other 115 % of control | dose: 50.0 mg/kg/injection, schedule: Q01DX009 (ip), vehicle: other 112 % of control | dose: 100.0 mg/kg/injection, schedule: Q01DX009 (ip), vehicle: other 106 % of control | dose: 200.0 mg/kg/injection, schedule: Q01DX009 (ip), vehicle: other 115 % of control | dose: 400.0 mg/kg/injection, schedule: Q01DX009 (ip), vehicle: other 123 % of control

CC(=O)OCCCN1/C(=C/C=C2\CCC(/C=C/c3sc4cc5ccccc5cc4[n+]3CCCOC(C)=O)=C2N(c2ccccc2)c2ccccc2)Sc2cc3ccccc3cc21
inactive: [12] 110 % of control | [13] 110 % of control | [1] 111 % of control

CC1(C)CN(Cc2ccccc2)C1(C)C#N (stereo not given)
inactive: [4] 100 % of control | [5] 105 % of control

C(=NCCN=Cc1cc2c(c3ccccc13)CCCC2)c1cc2c(c3ccccc13)CCCC2
inactive: [9] 96 % of control | [10] 91 % of control | [11] 88 % of control

CCOC(=O)C(C#N)c1cc(O)c(O)c2ccc(O)cc12 (stereo not given)
inactive: [17] 97 % of control | [18] 107 % of control | dose: 400.0 mg/kg/injection, schedule: Q01DX001 (ip), vehicle: saline with Tween-80 106 % of control

Cc1cc(C)nc(N/N=C\c2c(Cl)cccc2Cl)n1
inactive: dose: 50.0 mg/kg/injection, schedule: Q04DX003 (ip), vehicle: Klucel (hydroxypropylcellulose) (HPC) 100 % of control | dose: 100.0 mg/kg/injection, schedule: Q04DX003 (ip), vehicle: Klucel (hydroxypropylcellulose) (HPC) 98 % of control | dose: 200.0 mg/kg/injection, schedule: Q04DX003 (ip), vehicle: Klucel (hydroxypropylcellulose) (HPC) 94 % of control

CCOc1ccc(Br)cc1/C=N\N=C\c1cc(Br)ccc1OCC
inactive: [8] 90 % of control | dose: 100.0 mg/kg/injection, schedule: Q04DX003 (ip), vehicle: saline with Tween-80 95 % of control | [19] 100 % of control | dose: 200.0 mg/kg/injection, schedule: Q04DX003 (ip), vehicle: saline with Tween-80 95 % of control | dose: 400.0 mg/kg/injection, schedule: Q01DX009 (ip), vehicle: saline with Tween-80 100 % of control | dose: 400.0 mg/kg/injection, schedule: Q04DX003 (ip), vehicle: saline with Tween-80 100 % of control

CCOC(=O)N1C=CN(C(=O)OCC)C1c1nccn1C(=O)OCC
inactive: [7] 100 % of control | [8] 96 % of control | [19] 105 % of control

CNC(=O)Nc1ccc(C2(C)SCCS2)cc1
inactive: [4] 97 % of control | [5] 87 % of control | [6] 90 % of control

O=C(CC1=NC2NN(c3ccccc3)C(=O)C2=C1CC(=O)c1ccc(F)cc1)c1ccc(F)cc1 (stereo not given)
inactive: [4] 98 % of control | [5] 97 % of control | [6] 97 % of control

C[C@]12CC[C@H]3[C@@H](C[C@H]4OC[C@@]35CC[C@H](O)C[C@]45Br)[C@@H]1CC[C@@H]2O
inactive: [14] 97 % of control | [15] 97 % of control | [16] 96 % of control

CCCCOC(=O)CNCC(=O)OCCCC
inactive: [4] 100 % of control | [5] 101 % of control | [6] 104 % of control

CC1CN(Cc2ccccc2)CCC1N1CCCC1 (stereo not given)
inactive: [9] 111 % of control | [10] 107 % of control | [11] 109 % of control
